Results as given in PubChem BioAssay (NCI).
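Cultured in 96-well plates, cells were exposed to test compound for 48 hours across five concentrations. At the GI50, growth is halved. TGI: concentration producing complete growth inhibition.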

Columns and labels:
Assay in all cases: NCI tumour cell line growth inhibition, 48 h
[1] = test system: K-562 leukemia
[2] = test system: EKVX NSCLC
[3] = test system: NCI-H23 lung
[4] = test system: SF-268 CNS
[5] = test system: KM12 colon
[6] = test system: SK-MEL-2 melanoma
[7] = test system: SK-MEL-28 melanoma
[8] = test system: M14 melanoma
[9] = test system: PC-3 prostate
[10] = test system: NCI/ADR-RES ovarian

| SMILES | TGI [1] [µM] | TGI [2] [µM] | TGI [3] [µM] | TGI [4] [µM] | TGI [5] [µM] | TGI [6] [µM] | TGI [7] [µM] | TGI [8] [µM] | GI50 [1] [µM] | GI50 [9] [µM] | TGI [9] [µM] | GI50 [10] [µM] | TGI [10] [µM] | GI50 [3] [µM] | GI50 [4] [µM] | GI50 [5] [µM] | GI50 [6] [µM] | GI50 [7] [µM] | GI50 [8] [µM] | GI50 [2] [µM] |
| --- | --- | --- | --- | --- | --- | --- | --- | --- | --- | --- | --- | --- | --- | --- | --- | --- | --- | --- | --- | --- |
| COC(=O)c1s/c(=N\C(=S)N(C)C)n(-c2ccc(Cl)cc2)c1C(=O)OC | > 100 | > 100 | > 100 | > 100 | > 100 | > 100 | > 100 | > 100 | – | – | – | – | – | – | – | – | – | – | – | – |
| Nc1c(C(=O)c2ccccc2)cnn1-c1ccc(F)cc1 | > 25 | – | > 25 | > 25 | > 25 | > 25 | > 25 | > 25 | > 25 | > 25 | > 25 | > 25 | > 25 | > 25 | > 25 | > 25 | > 25 | > 25 | > 25 | – |
| COc1cc(/C=C\c2cc(OC)c(OC)c(OC)c2)cc(N/C=C\C(=O)c2cc(OC)c(OC)c(OC)c2)c1OC | > 100 | – | > 100 | > 100 | > 100 | > 100 | > 100 | – | 3.38 | 2.89 | > 100 | 3.12 | > 100 | 4.22 | 6.04 | 3.21 | 4.54 | 4.28 | – | – |
| O=C(Nc1cc(C(F)(F)F)ccc1Cl)c1cccc(NC2=C(Cl)C(=O)N(Cc3ccccc3)C2=O)c1 | > 100 | > 100 | – | > 100 | > 100 | > 100 | > 100 | > 100 | 4.23 | 14.1 | > 100 | – | – | – | 29.2 | 52.9 | 30.8 | > 100 | 82.6 | 53 |
| Cn1c(=O)c(Oc2ccc(F)cc2)cc2cnc(NC3CCOCC3)nc21 | > 25 | – | > 25 | > 25 | > 25 | > 25 | > 25 | > 25 | > 25 | > 25 | > 25 | > 25 | > 25 | > 25 | > 25 | > 25 | > 25 | > 25 | > 25 | – |
| C[Si](C)(C)/C(Br)=C\CCN1C(=O)CCC1=O | > 100 | > 100 | > 100 | > 100 | > 100 | > 100 | > 100 | > 100 | – | – | – | – | – | – | – | – | – | – | – | – |
| Clc1nc(Cl)nc(Nc2cccc3ccccc23)n1 | > 100 | – | > 100 | > 100 | > 100 | > 100 | > 100 | > 100 | 40.8 | 84.2 | > 100 | > 100 | > 100 | > 100 | > 100 | 93.7 | 80.7 | > 100 | > 100 | – |
| CC(=O)N1CCC(=O)/C(=C/c2ccccc2)C1 | > 100 | – | > 100 | 62.6 | 51.6 | – | 38.3 | > 100 | – | – | – | – | – | – | – | – | – | – | – | – |
| COc1cccc2c1C(=O)c1c(O)c3c(c(O)c1C2=O)C[C@@](O)(/C(C)=N/NC(=O)c1ccc(Cl)cc1)C[C@@H]3OC1CC(N)C(O)C(C)O1 (stereo partly drawn) | – | – | 1.12 | – | 2.44 | – | – | – | – | 0.293 | 1.6 | 4.6 | 44.3 | 0.194 | – | 0.326 | – | – | – | – |
| COc1ccc(C(O)(CCC(C)C)C(CN2CCOCC2)c2ccc(Cl)cc2)cc1 (stereo not drawn) | 47 | – | 30.3 | 29.3 | 26.2 | – | 34.4 | 33.2 | 15.1 | 6.03 | 21 | 11.1 | 34.2 | 9.85 | 14 | 11.4 | – | 15.7 | 13.9 | – |
| C#Cc1nc(Nc2cc(C)[nH]n2)c2ccccc2n1 | > 100 | – | 3.59 | 1.11 | 0.503 | – | 1.71 | 0.559 | 0.349 | 0.317 | 1.4 | 0.402 | > 100 | 0.553 | 0.313 | 0.232 | – | 0.363 | 0.232 | – |
| C=CCN1CCC23c4c5ccc(O)c4OC2C(=NN=C2CCC4(O)C6Cc7ccc(O)c8c7C4(CCN6CC=C)C2O8)CCC3(O)C1C5 (stereo not drawn) | 78.7 | > 100 | > 100 | > 100 | 42.4 | 33.8 | 35.3 | 32 | – | – | – | – | – | – | – | – | – | – | – | – |
| [N-]=[N+]=N/C1=C/CCCCC(=O)C1 | > 100 | > 100 | > 100 | > 100 | – | > 100 | > 100 | > 100 | – | – | – | – | – | – | – | – | – | – | – | – |
| O=C1c2cc3c(cc2-c2c1c1cc(Cl)c(Cl)cc1c(=O)n2C[C@H](O)CO)OCO3 | > 100 | 19 | 0.0448 | 2.7 | – | 0.374 | 8.62 | – | < 0.01 | – | – | < 0.01 | 0.0184 | < 0.01 | < 0.01 | – | 0.0488 | 0.0429 | – | 0.0243 |
| O=C(Nc1ccc(Cl)c(C(F)(F)F)c1)c1ccc(NC2=C(Cl)C(=O)N(Cc3ccccc3)C2=O)cc1 | 7.24 | 34.5 | – | 9.02 | 47.3 | 38.7 | 17.6 | 41.6 | 3.49 | 3.39 | 11.8 | – | – | – | 2.76 | 20.3 | 13.8 | 4.4 | 19.6 | 11.5 |
| C[C@]12CCC(=O)C=C1CC[C@@H]1C2CC[C@]2(C)Nc3[nH]ncc3CC12 (stereo partly drawn) | > 100 | > 100 | > 100 | – | > 100 | > 100 | > 100 | > 100 | – | – | – | – | – | – | – | – | – | – | – | – |
| COC12OCCN(C)C1=CC(=O)C1=NNC(C)C12 (stereo not drawn) | > 100 | > 100 | > 100 | – | > 100 | – | > 100 | > 100 | – | – | – | – | – | – | – | – | – | – | – | – |
| CCN(CC)CCSc1c2ccccc2nc2c(OC)ccc(OC)c12 | > 24.5 | > 100 | 27.9 | 26.1 | 16.8 | > 23 | 8.91 | 15.4 | – | – | – | – | – | – | – | – | – | – | – | – |
| COC(=O)C1=C(C(=O)OC)C2=S(SC3=C2CCCC3)S1 (stereo not drawn) | 25.8 | > 100 | > 100 | > 100 | 97.6 | 85.6 | > 100 | > 100 | – | – | – | – | – | – | – | – | – | – | – | – |
| CS/C(=C(\S)c1ccccc1)c1ccccc1 | > 100 | > 100 | > 100 | > 100 | > 100 | > 100 | > 100 | > 100 | – | – | – | – | – | – | – | – | – | – | – | – |
| COc1ccc(-c2cc(/C=C/C(=O)c3ccc(OC)c(OC)c3)[nH]n2)cc1 | 10.7 | – | 6.33 | 4.83 | 3.11 | – | 3.07 | 4.97 | 1.28 | 1.45 | 3.46 | 3.44 | 24.8 | 2.47 | 1.94 | 1.38 | – | 1.65 | 2.17 | – |
| CCOC(=O)c1ccc(N=Nc2cc(C(=O)OCC)ccc2O)cc1 | > 100 | 41.8 | > 100 | > 100 | – | – | > 100 | > 100 | – | – | – | – | – | – | – | – | – | – | – | – |
| CCOC(=O)c1c(-c2ccc(OC)cc2)c(C#N)c2c(C#N)c(N)nn2c1N | > 100 | > 100 | > 100 | 73.7 | > 100 | 26.5 | > 100 | 25.9 | 1.18 | – | – | 3.57 | > 100 | 4.69 | 5.39 | 4.01 | 3.35 | 5.41 | 3.26 | 4.8 |
| O=C1CCC(=O)c2c1c(O)c1ccncc1c2O | 44 | 47.6 | 31.9 | – | 38.9 | 26.4 | 34.8 | 28.9 | – | – | – | – | – | – | – | – | – | – | – | – |
| CC(C)(C)[Si](C)(C)OC1C(=O)C[C@H]2CCCC[C@@H]12 (stereo partly drawn) | > 100 | > 100 | > 100 | > 100 | > 100 | > 100 | – | > 100 | – | – | – | – | – | – | – | – | – | – | – | – |
| Cc1ccc(S(=O)OCc2c(C)c(C)c(COS(=O)c3ccc(C)cc3)c(C)c2C)cc1 (stereo not drawn) | > 100 | > 100 | > 100 | > 100 | > 100 | – | > 100 | > 100 | – | – | – | – | – | – | – | – | – | – | – | – |
| Cn1cc(-c2csc(-c3c[nH]c4ccc(Br)cc34)n2)c2cnccc21 | 1.28 | 6.37 | 8.79 | 7.96 | 5.48 | 6.35 | 3.31 | 3.61 | 0.345 | 2.02 | 4.15 | – | – | 2.73 | 2.83 | 2.33 | 2.58 | 1.7 | 1.87 | 2.5 |
| C=COC(=O)N[C@H]1CCc2cc(OC)c(OC)c(OC)c2-c2ccc(SC)c(=O)cc21 | > 31.6 | > 100 | 12.1 | 44.9 | 0.0388 | 1.73 | > 96.3 | 14.7 | – | – | > 100 | – | – | – | – | – | – | – | – | – |
